Assay type in all cases: cell-based
For assay [1], the target named is IRAK4 auto-phosphorylation (Homo sapiens (Human), UniProt Q9NWZ3). Description: IRAK4 phosphorylation cell assay in IL-1β-stimulated Karpas-299 cells. The settings on record: IL-1β 22.7 ng/mL, pIRAK4 (Thr345/Ser346), geometric mean of at least 2 experiments. A digest of the protocol: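 Karpas-299 cells were preincubated 1 h at 37 °C with compound (10-point half-log series, top 30 μM), then stimulated 10 min with 22.7 ng/mL IL-1β. Cells were fixed and stained for pIRAK4 (Thr345/Ser346), and per-cell fluorescence was quantified by high-content imaging. IC50 values are geometric means of at least 2 experiments.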
Chain of IRAK4 auto-phosphorylation (Q9NWZ3 whole entry): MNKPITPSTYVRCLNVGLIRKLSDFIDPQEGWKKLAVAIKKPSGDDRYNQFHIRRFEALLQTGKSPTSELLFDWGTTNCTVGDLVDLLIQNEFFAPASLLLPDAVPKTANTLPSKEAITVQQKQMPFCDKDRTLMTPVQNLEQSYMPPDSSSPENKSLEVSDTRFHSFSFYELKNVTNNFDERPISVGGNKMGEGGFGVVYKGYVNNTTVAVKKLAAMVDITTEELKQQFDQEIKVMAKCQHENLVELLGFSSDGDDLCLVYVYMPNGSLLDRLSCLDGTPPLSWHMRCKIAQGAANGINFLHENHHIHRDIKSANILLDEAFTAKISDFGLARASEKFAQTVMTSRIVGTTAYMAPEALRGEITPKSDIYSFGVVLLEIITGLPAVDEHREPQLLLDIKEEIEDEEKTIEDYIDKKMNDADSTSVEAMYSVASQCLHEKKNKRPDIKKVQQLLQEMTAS

The subject of assay [2] is IL-1β stimulated IL-8 release in hTHP1 cells. Nature of the assay: IL-1β-induced IL-8 release in human THP-1 monocyte cell line. The settings on record: Homo sapiens, THP-1, 18 h, THP-1 cells, IL-1β 1.8 ng/mL, geometric mean of at least n=2, * n = 1, read-out: hTHP1, IL1β stim, IL8 release red. IC50. How it is done: Effect of IRAK4 Inhibitors on IL-1β-Induced Cytokine Release in Human THP-1 Monocyte Cell Line
THP-1 cells were cultured in RPMI 1640 (Gibco 72400-021) containing 10% FBS (Gibco 10270-106), 1 mM Na-pyruvate (Gibco 11360-070) and 100 U/mL Penicillin-Streptomycin (Gibco 15140-122). Cells were plated at 5×10^4 cells per well in 384 well Echo certified plates (Labcyte PPT-0200) to which compounds had been added at various concentrations (10 point half log dose response with a final top concentration of 10 μM) using an Echo 655 (Labcyte Inc). The plate was incubated for 1 h at 37° C., then recombinant […] (R&D Systems 201-LB-025/CF) was added to a final concentration of 1.8 ng/mL. The plates were incubated at 37° C. for 18h. The plates were centrifuged at 250×g for four minutes, then 1.6 μL of the cell supernatant was transferred to a white low volume 384 well plate (Greiner #784075) using acoustic dispensing on an Echo 655. Next, 200 nL of acceptor bead (5 mg/mL) and biotinylated anti-IL-8 antibody (500 nM) was added using acoustic dispensing (beads and antibody were from a PerkinElmer 18 Alpha LISA detection kit, AL224C). The plate was sealed, briefly centrifuged, then incubated at room temperature for 1 h. Afterwards, 200 nL of donor bead solution (5 mg/mL) was added, the plate sealed and briefly centrifuged, then incubated for 1 h before being read on an Envision plate reader to allow determination the concentration of IRAK4 inhibitor required to effect a 50% reduction in the amount of IL-8 released following IL-1β stimulation in THP1 cells (Table 2). The quantified data were analysed in Genedata Screener 15 (Genedata AG). Data presented are the geometric mean of at least n=2, or as denoted by an * are obtained from a single experiment.

Assay [3] deals with human PBMCs stimulated with LPS. Description: LPS-induced cytokine release in human PBMCs. The conditions noted are these: PBMC, 0.11 ng/mL LPS, 4 h. From the text:
In Vitro Effect of IRAK4 Inhibitors on LPS- and IL-1β-Induced Cytokine Release in Human PBMCs
To evaluate the effect and potency of IRAK4 inhibitors on blocking disease-relevant pathways in human primary immune cells, we stimulated human PBMCs (peripheral blood mononuclear cells) with LPS (TLR4 agonist) or IL-1β (IL-1R ligand) and measured the release of the proinflammatory cytokines IL-6 and TNF-α. Briefly, PBMCs were isolated from human blood, donated from healthy individuals, using LymphoPrep density gradient and plated at a cell density of 200 000 cells/well (for LPS assay) or 300 000 cells/well (for IL-1β assay) in 96-well culture plates. Cells were incubated for 1 h with serial dilutions of IRAK4 inhibitor or vehicle (DMSO) prior to stimulation of cells with 0.11 ng/mL LPS (derived from E. coli) or 1 ng/mL recombinant human IL-1β. After 4 h of LPS stimulation or 20 h of […] stimulation, the supernatant was collected and the levels of the proinflammatory cytokines TNF-α, IL-8 and IL-6 were measured by Mesoscale Discovery (MSD) multiplex assay. Dose-response curves were plotted and IC50 values were calculated with 4-parameter curve fit using GraphPad Prism 8 (see Table 3).

Like-named read-outs stand apart in the source and are kept apart here.

As a reminder, the IC50 is the concentration that gives 50% inhibition. With `COc1cc2nn([C@@H]3CC[C@@H](O)C[C@H]3C)cc2cc1C(=O)Nc1cnc2cccnn12` [Example 89, 2-((1R,2R,4R)-4-hydroxy-2-methylcyclohexyl)-N-(imidazo[1,2-b]pyridazin-3-yl)-6-methoxy-2H-indazole-5-carboxamide], the IC50 amounted to 36 nM in assay [1]; 31 nM in assay [2]; 32 nM in assay [3] (read-out: IC50, IL-6 read-out, LPS stimulation); 39 nM in assay [3] (read-out: IC50, TNF-α read-out, LPS stimulation).

Values taken from patent US11866405B2, “Substituted indazoles as IRAK4 inhibitors” (AstraZeneca AB, priority 2020, dated 2024).
